ChEMBL document CHEMBL5143607, “Discovery and structure-activity relationships of a novel oxazolidinone class of bacterial type II topoisomerase inhibitors” (Bioorg Med Chem Lett, 2022)
Converted amounts (≈) assume the structure as drawn.

Experiments:
[1] = Cytotoxicity against human HepG2 cells assessed as reduction in cell viability for 24 hrs by Celltiter-Glo assay; format: toxicity, cell-based
Acinetobacter baumannii = experiment: Antibacterial activity against Acinetobacter baumannii NCTC 13420 assessed as bacterial growth inhibition by CLSI protocol based assay; format: functional
Klebsiella pneumoniae = experiment: Antibacterial activity against Klebsiella pneumoniae ATCC 700603 assessed as bacterial growth inhibition by CLSI protocol based assay; format: functional
Pseudomonas aeruginosa = experiment: Antibacterial activity against Pseudomonas aeruginosa ATCC 27853 assessed as bacterial growth inhibition by CLSI protocol based assay; format: functional
Escherichia coli [2] = experiment: Antibacterial activity against Escherichia coli W4573 assessed as bacterial growth inhibition by CLSI protocol based assay; format: functional
Escherichia coli [3] = experiment: Antibacterial activity against Escherichia coli N43 assessed as bacterial growth inhibition by CLSI protocol based assay; format: functional
[4] = biological target: Voltage-gated inwardly rectifying potassium channel KCNH2 (Homo sapiens, UniProt Q12809); experiment: Inhibition of human ERG by Ionworks electrophysiology assay; format: toxicity
Chain of Voltage-gated inwardly rectifying potassium channel KCNH2 (Q12809 whole entry): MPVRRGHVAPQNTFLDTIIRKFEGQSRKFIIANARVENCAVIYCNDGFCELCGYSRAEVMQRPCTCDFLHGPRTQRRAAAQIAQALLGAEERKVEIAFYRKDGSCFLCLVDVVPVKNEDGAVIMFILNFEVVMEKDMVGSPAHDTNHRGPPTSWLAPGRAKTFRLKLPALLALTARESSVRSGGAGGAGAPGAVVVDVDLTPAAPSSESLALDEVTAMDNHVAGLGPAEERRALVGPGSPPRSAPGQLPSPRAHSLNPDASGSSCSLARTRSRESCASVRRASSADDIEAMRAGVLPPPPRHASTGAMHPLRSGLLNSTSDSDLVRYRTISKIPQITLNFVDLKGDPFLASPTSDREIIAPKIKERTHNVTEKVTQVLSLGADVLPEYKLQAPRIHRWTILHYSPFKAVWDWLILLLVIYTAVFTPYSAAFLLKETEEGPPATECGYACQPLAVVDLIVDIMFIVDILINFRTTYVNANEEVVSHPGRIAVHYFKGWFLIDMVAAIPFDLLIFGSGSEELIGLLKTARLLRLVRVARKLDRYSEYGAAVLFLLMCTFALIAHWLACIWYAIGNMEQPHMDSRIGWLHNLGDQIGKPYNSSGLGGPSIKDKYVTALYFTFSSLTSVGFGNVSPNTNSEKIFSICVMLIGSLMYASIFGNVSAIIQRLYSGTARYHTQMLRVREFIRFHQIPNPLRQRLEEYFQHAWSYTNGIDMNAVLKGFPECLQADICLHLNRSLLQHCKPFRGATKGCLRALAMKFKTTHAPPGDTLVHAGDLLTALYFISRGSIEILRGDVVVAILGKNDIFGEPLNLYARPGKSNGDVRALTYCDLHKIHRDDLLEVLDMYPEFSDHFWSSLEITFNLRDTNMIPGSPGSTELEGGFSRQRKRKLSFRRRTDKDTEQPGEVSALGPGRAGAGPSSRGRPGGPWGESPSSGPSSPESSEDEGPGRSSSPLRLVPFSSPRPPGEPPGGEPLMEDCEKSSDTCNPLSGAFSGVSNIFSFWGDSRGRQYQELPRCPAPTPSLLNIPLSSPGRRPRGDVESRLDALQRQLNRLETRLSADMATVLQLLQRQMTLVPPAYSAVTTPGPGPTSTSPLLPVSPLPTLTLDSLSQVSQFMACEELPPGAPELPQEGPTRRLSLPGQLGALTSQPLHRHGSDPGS

[5] = Lipophilicity, logD of the compound by shake flask assay; format: physicochemical; settings: octanol/water
Staphylococcus aureus = experiment: Antibacterial activity against Staphylococcus aureus ATCC 29213 assessed as bacterial growth inhibition by CLSI protocol based assay; format: functional
DNA gyrase = DNA gyrase (Escherichia coli, UniProt P0AES4+P0AES6); experiment: Inhibition of Escherichia coli DNA gyrase supercoiling activity; format: protein-complex assay
[6] = Inhibition of Escherichia coli topoisomerase 4 assessed as reduction in decatenation
[7] = Intrinsic clearance in mouse liver microsomes in presence of NADPH and measured upto 45 mins; format: ADME, Microsome; settings: read-out: CLH
[8] = Intrinsic clearance in human liver microsomes in presence of NADPH and measured upto 45 mins; format: ADME, Microsome; settings: read-out: CLH
[9] = Plasma protein binding in mouse assessed as free fraction by equilibrium dialysis assay; format: ADME, cell-free
[10] = biological target: DNA topoisomerase 2-alpha (Homo sapiens, UniProt P11388); experiment: Inhibition of human topoisomerase 2 assessed as reduction in decatenation
Chain of DNA topoisomerase 2-alpha (P11388 whole entry): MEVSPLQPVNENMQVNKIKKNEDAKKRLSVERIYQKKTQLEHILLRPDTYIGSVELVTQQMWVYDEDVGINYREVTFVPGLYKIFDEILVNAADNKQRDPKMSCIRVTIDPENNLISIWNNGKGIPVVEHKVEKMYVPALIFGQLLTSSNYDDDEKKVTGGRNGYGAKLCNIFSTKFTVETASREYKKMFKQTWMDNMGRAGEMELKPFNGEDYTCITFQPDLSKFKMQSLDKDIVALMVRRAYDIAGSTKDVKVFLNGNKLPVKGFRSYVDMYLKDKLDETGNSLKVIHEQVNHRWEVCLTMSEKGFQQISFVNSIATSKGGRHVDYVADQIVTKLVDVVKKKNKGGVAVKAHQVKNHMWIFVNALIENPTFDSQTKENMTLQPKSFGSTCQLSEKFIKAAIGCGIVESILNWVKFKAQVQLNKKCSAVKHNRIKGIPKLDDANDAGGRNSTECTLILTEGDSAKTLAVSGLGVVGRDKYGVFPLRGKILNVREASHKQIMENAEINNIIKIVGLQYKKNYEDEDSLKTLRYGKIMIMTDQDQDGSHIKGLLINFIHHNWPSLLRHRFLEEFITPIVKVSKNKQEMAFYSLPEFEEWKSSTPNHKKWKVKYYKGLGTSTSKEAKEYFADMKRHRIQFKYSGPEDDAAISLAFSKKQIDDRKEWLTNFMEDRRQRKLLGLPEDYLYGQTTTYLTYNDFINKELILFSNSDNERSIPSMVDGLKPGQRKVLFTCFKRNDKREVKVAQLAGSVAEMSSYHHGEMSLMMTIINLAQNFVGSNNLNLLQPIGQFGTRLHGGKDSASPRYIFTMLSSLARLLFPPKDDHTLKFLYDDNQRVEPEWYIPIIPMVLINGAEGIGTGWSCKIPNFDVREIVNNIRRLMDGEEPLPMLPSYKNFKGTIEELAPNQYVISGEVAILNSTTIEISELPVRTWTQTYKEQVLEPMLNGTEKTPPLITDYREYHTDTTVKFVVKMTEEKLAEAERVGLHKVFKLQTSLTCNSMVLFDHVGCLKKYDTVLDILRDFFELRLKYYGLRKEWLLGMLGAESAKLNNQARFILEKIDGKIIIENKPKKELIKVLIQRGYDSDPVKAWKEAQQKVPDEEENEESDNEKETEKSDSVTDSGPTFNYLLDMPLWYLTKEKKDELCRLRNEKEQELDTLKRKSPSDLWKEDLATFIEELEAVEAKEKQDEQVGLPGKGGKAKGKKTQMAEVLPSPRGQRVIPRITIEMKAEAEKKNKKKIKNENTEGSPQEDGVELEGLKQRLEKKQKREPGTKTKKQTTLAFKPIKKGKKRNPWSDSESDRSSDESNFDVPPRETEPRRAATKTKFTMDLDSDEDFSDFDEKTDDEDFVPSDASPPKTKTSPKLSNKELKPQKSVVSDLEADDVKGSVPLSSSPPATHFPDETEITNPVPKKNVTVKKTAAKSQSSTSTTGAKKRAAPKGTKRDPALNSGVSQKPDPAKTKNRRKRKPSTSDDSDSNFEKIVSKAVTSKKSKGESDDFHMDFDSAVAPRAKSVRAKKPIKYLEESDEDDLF

hERG (KCNH2) = hERG (KCNH2) (Homo sapiens, UniProt Q12809); experiment: Inhibition of human ERG at 100 uM by Ionworks electrophysiology assay; format: toxicity
Chain of hERG (KCNH2) (Q12809 whole entry): as the sequence (Q12809 whole entry) above

| SMILES | IC50 at 24 h [1] [µg/mL] | MIC (Acinetobacter baumannii) [µg/mL] | MIC (Klebsiella pneumoniae) [µg/mL] | MIC (Pseudomonas aeruginosa) [µg/mL] | MIC (Escherichia coli [2]) [µg/mL] | MIC (Escherichia coli [3]) [µg/mL] | IC50 [4] [µM] | logD [5] | MIC (Staphylococcus aureus) [µg/mL] | IC50 (DNA gyrase) [µM] | IC50 [6] [µM] | microsomal CLint [7] [µL/min/mg] | microsomal CLint [8] [µL/min/mg] | fraction unbound [9] | IC50 [10] [µM] | inhibition at 100 µM (hERG (KCNH2)) [%] |
| --- | --- | --- | --- | --- | --- | --- | --- | --- | --- | --- | --- | --- | --- | --- | --- | --- |
| COc1ccc2ccc(=O)n(CCN[C@H]3CC[C@H]4[C@H](C3)OC(=O)N4c3ncc4c(n3)NC(=O)CO4)c2n1 | > 128 | 1 (≈ 1.97 µM) | 8 (≈ 15.8 µM) | 8 (≈ 15.8 µM) | 0.5 (≈ 0.985 µM) | 0.015 (≈ 0.0296 µM) | > 32 | 0.9 | – | – | – | – | – | – | – | – |
| COc1cnc2ccc(=O)n(CCN[C@H]3CC[C@H]4[C@H](C3)OC(=O)N4c3ccc4c(n3)NC(=O)CO4)c2n1 | > 128 | 0.12 (≈ 0.236 µM) | 2 (≈ 3.94 µM) | 1 (≈ 1.97 µM) | 0.12 (≈ 0.236 µM) | 0.004 (≈ 0.00788 µM) | 9 | 1.37 | 0.015 (≈ 0.0296 µM) | – | – | – | – | – | – | – |
| N#Cc1cnc2ccc(=O)n(CCN[C@H]3CC[C@H]4[C@H](C3)OC(=O)N4c3ccc4c(n3)NC(=O)CO4)c2c1 | > 128 | 1 (≈ 1.99 µM) | 8 (≈ 16 µM) | 2 (≈ 3.99 µM) | 0.25 (≈ 0.499 µM) | 0.004 (≈ 0.00798 µM) | > 100 | 0.79 | 0.06 (≈ 0.12 µM) | 0.09 | 0.017 | 55 | < 3 | > 0.3 | > 100 | – |
| O=C1COc2ccc(N3C(=O)O[C@H]4C[C@@H](NCCn5c(=O)ccc6ccc(C(=O)O)cc65)CC[C@@H]43)nc2N1 | – | > 64 | > 64 | > 64 | > 64 | 16 (≈ 30.8 µM) | – | < 0.2 | > 64 | – | – | – | – | – | – | 33 |
| COc1ccc2ccc(=O)n(CCN[C@H]3CC[C@H]4[C@H](C3)OC(=O)N4c3ccc4c(n3)NC(=O)C(C)(C)O4)c2n1 | – | 1 (≈ 1.87 µM) | 64 (≈ 120 µM) | 32 (≈ 59.9 µM) | 2 (≈ 3.74 µM) | 0.03 (≈ 0.0561 µM) | – | 2.84 | 0.03 (≈ 0.0561 µM) | – | – | – | – | – | – | – |
| COc1ccc2ncc(=O)n(CCN[C@H]3CC[C@H]4[C@H](C3)OC(=O)N4c3ccc4c(n3)NC(=O)CO4)c2n1 | > 64 | 0.06 (≈ 0.118 µM) | 4 (≈ 7.88 µM) | 4 (≈ 7.88 µM) | 0.25 (≈ 0.493 µM) | ≤ 0.008 | 7 | 1.6 | 0.015 (≈ 0.0296 µM) | – | – | – | – | – | – | – |
| COc1ncc2ccc(=O)n(CCN[C@H]3CC[C@H]4[C@H](C3)OC(=O)N4c3ccc4c(n3)NC(=O)CO4)c2n1 | – | 3.2 (≈ 6.31 µM) | > 64 | > 64 | 32 (≈ 63.1 µM) | 1 (≈ 1.97 µM) | – | 1.79 | 2 (≈ 3.94 µM) | – | – | – | – | – | – | – |
| O=C1COc2ccc(N3C(=O)O[C@H]4C[C@@H](NCCCn5c(=O)cnc6ccc(F)cc65)CC[C@@H]43)nc2N1 | > 128 | 0.12 (≈ 0.236 µM) | 2 (≈ 3.93 µM) | 1 (≈ 1.97 µM) | 0.12 (≈ 0.236 µM) | 0.25 (≈ 0.492 µM) | 13 | 1.26 | 0.25 (≈ 0.492 µM) | – | – | – | – | – | – | – |
| N#Cc1ccc2ccc(=O)n(CCCN[C@H]3CC[C@H]4[C@H](C3)OC(=O)N4c3ccc4c(n3)NC(=O)CO4)c2c1 | 55 (≈ 107 µM) | 0.12 (≈ 0.233 µM) | 2 (≈ 3.89 µM) | 1 (≈ 1.94 µM) | 0.06 (≈ 0.117 µM) | ≤ 0.016 | 7 | 1.03 | 0.06 (≈ 0.117 µM) | – | – | – | – | – | – | – |
| COc1cc2c(ccc(=O)n2CCN[C@H]2CC[C@H]3[C@H](C2)OC(=O)N3c2ccc3c(n2)NC(=O)CO3)cn1 | – | 0.5 (≈ 0.987 µM) | 32 (≈ 63.2 µM) | 16 (≈ 31.6 µM) | 2 (≈ 3.95 µM) | 0.06 (≈ 0.118 µM) | – | 1.69 | 0.5 (≈ 0.987 µM) | – | – | – | – | – | – | 83 |
| N#Cc1cnc2ccc(=O)n(CCN[C@H]3CC[C@H]4[C@H](C3)OC(=O)N4c3ccc4c(n3)NC(=O)CS4)c2c1 | > 128 | 0.12 (≈ 0.232 µM) | 16 (≈ 30.9 µM) | 2 (≈ 3.86 µM) | 0.5 (≈ 0.966 µM) | 0.004 (≈ 0.00773 µM) | 20 | 1.42 | 0.03 (≈ 0.058 µM) | – | – | – | – | – | – | – |
| O=C(O)c1cn(C2CC2)c2cc(N3CCNCC3)c(F)cc2c1=O [CIPROFLOXACIN] | > 128 | – | – | – | – | – | – | – | – | – | 0.03 | – | – | – | – | – |
